Read-outs that look alike come from different tables or passages of the source.
How the values were obtained:
[1] = system: HCV 1a replicon; experiment: Cell-based HCV replicon assay (TaqMan), genotype 1a replicon; settings: HCV genotype 1a replicon cells, replicon RNA by real time PCR, day 3, EC90 = concentration for ΔCT=3.2 over baseline
Description: (§1) Measurement of inhibition by compounds of the present invention was performed using the HCV replicon system. Several different replicons encoding different HCV genotypes or mutations were used. In addition, potency measurements were made using different formats of the replicon assay, including different ways of measurements and different plating formats. See Jan M. Vrolijk et al., A replicons-based bioassay for the measurement of interferons in patients with chronic hepatitis C, 110 J. VIROLOGICAL METHODS 201 (2003); Steven S. Carroll et al., Inhibition of Hepatitis C Virus RNA Replication by 2′-Modified Nucleoside Analogs, 278(14) J. BIOLOGICAL CHEMISTRY 11979 (2003). However, the underlying principles are common to all of these determinations, and are outlined below.
(§2) TaqMan®-Based Assay Protocol:
(§3) Compounds of the present invention were assayed for cell-based anti-HCV activity using the following protocol. Replicon cells were seeded at 5000 cells/well in 96-well collagen I-coated Nunc plates in the presence of the test compound. Various concentrations of test compound, typically in 10 serial 2-fold dilutions, were added to the assay mixture, with the starting concentration ranging from 250 μM to 1 μM. The final concentration of DMSO was 0.5%, fetal bovine serum was 5%, in the assay media. Cells were harvested on day 3 by the addition of 1× cell lysis buffer (Ambion cat #8721). The replicon RNA level was measured using real time PCR (TaqMan® assay). The amplicon was located in 5B. The PCR primers were: 5B.2F, ATGGACAGGCGCCCTGA (SEQ. ID NO. 1); 5B.2R, […] (SEQ. ID NO. 2); the probe sequence was FAM-labeled CACGCCATGCGCTGCGG (SEQ. ID NO. 3). GAPDH RNA was used as endogenous control and was amplified in the same reaction as NS5B (multiplex PCR) using primers and VIC-labeled probe recommended by the manufacturer (PE Applied Biosystem). The real-time […] reactions were run on ABI PRISM 7900HT Sequence Detection System using the following program: 48° C. for 30 minutes, 95° C. for 10 minutes, 40 cycles of 95° C. for 15 sec, 60° C. for 1 minute. The ΔCT values (CT5B-CTGAPDH) were plotted against the concentration of test compound and fitted to the sigmoid dose-response model using XLfit4 (MDL). EC50 was defined as the concentration of inhibitor necessary to achieve ΔCT=1 over the projected baseline; EC90 the concentration necessary to achieve ΔCT=3.2 over the baseline. Alternatively, to quantitate the absolute amount of replicon RNA, a standard curve was established by including serially diluted T7 transcripts of replicon RNA in the Taqman assay. All TaqMan® reagents were from PE Applied Biosystems. Such an assay procedure was described in detail in e.g. Malcolm et al., Antimicrobial Agents and Chemotherapy 50: 1013-1020 (2006).
(§4) HCV replicon EC50 assay data for various replicons and mutants was calculated for selected compounds of the present invention using this method and is provided in the tables above herein.

[2] = system: HCV 1b replicon; experiment: Cell-based HCV replicon assay (TaqMan), genotype 1b replicon; settings: HCV genotype 1b replicon cells, replicon RNA by real time PCR, day 3, EC90 = concentration for ΔCT=3.2 over baseline
Description: as §1, §2, §3, §4

[3] = system: HCV 1a Y93H replicon; experiment: Cell-based HCV replicon assay (TaqMan), 1a Y93H mutant replicon; settings: EC90 = concentration for ΔCT=3.2 over baseline
Description: as §1, §2, §3, §4

[4] = system: HCV 2b replicon; experiment: Cell-based HCV replicon assay (TaqMan), genotype 2b replicon; settings: Hepatitis C virus, 72 h, read-out: 2b EC90, HCV genotype 2b replicon cells, replicon RNA by real time PCR, day 3; EC90 = concentration for ΔCT=3.2 over baseline
Description: as §1, §2, §3, §4

[5] = Hepatitis C virus, 72 h, read-out: 1a Y93H EC90, HCV 1a Y93H mutant replicon cells, replicon RNA by real time PCR, day 3

| Compound | EC90 ([1]; Hepatitis C virus, 72 h) [nM] | EC90 ([2]; Hepatitis C virus, 72 h) [nM] | EC90 [3, 5] [nM] | EC90 [4] [nM] | EC90 [1] [nM] | EC90 [2] [nM] | EC90 ([3]; read-out: 1a Y93H EC90, HCV 1a Y93H mutant replicon cells, replicon RNA by real time PCR, day 3) [nM] |
| --- | --- | --- | --- | --- | --- | --- | --- |
| COC(=O)N[C@H](C(=O)N1CCC[C@H]1c1ncc(-c2ccc(-c3ccc4c(ccc5nc([C@@H]6C[Si](C)(C)CN6C(=O)[C@@H](NC(=O)OC)[C@H](O)C(C)C)[nH]c54)c3)cc2)[nH]1)C(C)C [Compound 68] | 0.21 | 0.02 | > 1000 | 143 |  |  |  |
| COC(=O)N[C@H](C(=O)N1CCC[C@H]1c1ncc(-c2ccc(-c3ccc4c(ccc5nc([C@@H]6C[Si](C)(C)CN6C(=O)[C@H](NC(=O)OC)C(C)(C)OC)[nH]c54)c3)cc2)[nH]1)C(C)C [Compound 74] | 1.3 | 0.03 | > 1000 | 380 |  |  |  |
| COC(=O)N[C@H](C(=O)N1C[Si](C)(C)C[C@H]1c1nc2ccc3cc(-c4ccc(-c5cnc([C@@H]6C[C@H]7C[C@H]7N6C(=O)[C@@H](NC(=O)OC)C(C)C)[nH]5)cc4)ccc3c2[nH]1)C(C)C [Compound 12] |  |  |  |  | 0.006 | 0.001 | > 100 |
| COC(=O)N[C@@H](CSC)C(=O)N1C[Si](C)(C)C[C@H]1c1nc2ccc3cc(-c4ccc(-c5cnc([C@@H]6CCCN6C(=O)[C@@H](NC(=O)OC)C(C)C)[nH]5)cc4)ccc3c2[nH]1 [Compound 76] | 0.25 | 0.03 | 984 | 108 |  |  |  |
| COC(=O)N[C@H](C(=O)N1C[Si](C)(C)C[C@H]1c1ncc(-c2ccc(-c3ccc4c(ccc5nc([C@@H]6CCCN6C(=O)[C@@H](NC(=O)OC)C(C)C)[nH]c54)c3)cc2)[nH]1)C(C)C [Compound 3] | 0.031 | 0.006 | 280 |  |  |  |  |
| COC(=O)N[C@H](C(=O)N1CCC[C@H]1c1ncc(-c2ccc3cc(-c4ccc5c(ccc6nc([C@@H]7C[Si](C)(C)CN7C(=O)[C@@H](NC(=O)OC)C7CC7)[nH]c65)c4)ccc3c2)[nH]1)C1CC1 [Compound 114] | 0.06 | > 1 | > 100 | > 100 |  |  |  |
| COC(=O)NC(Cc1cccs1)C(=O)N1C[Si](C)(C)C[C@H]1c1nc2ccc3cc(-c4ccc(-c5cnc([C@@H]6CCCN6C(=O)[C@@H](NC(=O)OC)C(C)C)[nH]5)cc4)ccc3c2[nH]1 (stereo partly drawn) [Compound 75] | 3.4 | 0.04 | > 1000 | 425 |  |  |  |
| COC(=O)N[C@H](C(=O)N1C[Si](C)(C)C[C@H]1c1nc2ccc3cc(-c4ccc(-c5nc(Cl)c([C@@H]6C[C@H]7C[C@H]7N6C(=O)[C@@H](NC(=O)OC)C(C)C)[nH]5)cc4)ccc3c2[nH]1)C(C)C [Compound 108] | 0.04 | 0.02 | 151 | 543 |  |  |  |
| COC(=O)N[C@H](C(=O)N1C[C@H](O)C[C@H]1c1ncc(-c2ccc(-c3ccc4c(ccc5nc([C@@H]6C[Si](C)(C)CN6C(=O)[C@@H](NC(=O)OC)C(C)C)[nH]c54)c3)cc2)[nH]1)C(C)C [Compound 11] | 0.26 | 0.008 | 152 |  |  |  |  |
| CCN(CC)[C@H](C(=O)N1C[Si](C)(C)C[C@H]1c1nc2ccc3cc(-c4ccc(-c5cnc([C@@H]6CCCN6C(=O)[C@@H](NC(=O)OC)C(C)C)[nH]5)cc4)ccc3c2[nH]1)c1ccccc1 [Compound 78] | 0.14 | 0.03 | 514 | 6.5 |  |  |  |
| COC(=O)N[C@H](C(=O)N1CCC[C@H]1c1ncc(-c2ccc(-c3ccc4c(ccc5nc([C@@H]6C[Si](C)(C)CN6C(=O)[C@@H](NC(=O)OC)C6CCCCC6)[nH]c54)c3)cc2)[nH]1)C(C)C [Compound 67] | 0.5 | 0.02 | > 1000 | 129 |  |  |  |
| COC(=O)N[C@H](C(=O)N1CCC[C@H]1c1ncc(-c2ccc(-c3ccc4c(ccc5nc([C@@H]6C[Si](C)(C)CN6C(=O)[C@@H](NC(=O)OC)C6CC6)[nH]c54)c3)cc2)[nH]1)C(C)C [Compound 70] | 0.35 | 0.02 | > 1000 | 162 |  |  |  |
| COC(=O)N[C@H](C(=O)N1C[Si](C)(C)C[C@@H]1c1nc2ccc3cc(-c4ccc5cc(-c6cnc([C@H]7CCCN7C(=O)[C@H](NC(=O)OC)C(C)C)[nH]6)ccc5c4)ccc3c2[nH]1)C1CCOCC1 [Compound 118] | 0.023 | > 1 | > 100 | > 100 |  |  |  |
| COC(=O)N[C@H](C(=O)N1C[Si](C)(C)C[C@H]1c1nc2ccc3cc(-c4ccc(-c5cnc([C@@H]6[C@H]7CC[C@H](C7)N6C(=O)[C@@H](NC(=O)OC)C(C)C)[nH]5)cc4)ccc3c2[nH]1)C(C)C [Compound 6] | 0.17 | 0.02 | 404 |  |  |  |  |
| COC(=O)N[C@H](C(=O)N1CCC[C@H]1c1ncc(-c2ccc(-c3ccc4c(ccc5nc([C@@H]6C[Si](C)(C)CN6C(=O)[C@@H](NC(=O)OC)C(C)C)[nH]c54)c3)cc2)[nH]1)C(C)C [Compound 5] | 0.012 | 0.006 | 181 |  |  |  |  |
| COC(=O)N[C@H](C(=O)N1CCC[C@H]1c1ncc(-c2ccc(-c3ccc4c(ccc5nc([C@@H]6C[Si](C)(C)CN6C(=O)[C@@H](NC(=O)OC)C6CCOCC6)[nH]c54)c3)cc2)[nH]1)C(C)C [Compound 69] | 0.33 | 0.05 | 118 | 19 |  |  |  |
| COC(=O)NC(C(=O)N1C[Si](C)(C)C[C@H]1c1nc2ccc3cc(-c4ccc5cc(-c6cnc([C@@H]7CCCN7C(=O)[C@H](NC(=O)OC)C(C)C)[nH]6)ccc5c4)ccc3c2[nH]1)[C@@H](C)OC (stereo partly drawn) [Compound 117] | 0.039 | > 1 | > 100 | > 100 |  |  |  |
| COC(=O)N[C@H](C(=O)N1C[Si](C)(C)C[C@H]1c1ncc(-c2ccc(-c3ccc4c(ccc5[nH]c([C@@H]6[C@H]7CC[C@H](C7)N6C(=O)[C@@H](NC(=O)OC)C(C)C)nc54)c3)cc2)[nH]1)C(C)C [Compound 4] | 0.097 | 0.005 | 333 |  |  |  |  |
| COC(=O)N[C@H](C(=O)N1CC(F)(F)C[C@H]1c1ncc(-c2ccc(-c3ccc4c(ccc5nc([C@@H]6C[Si](C)(C)CN6C(=O)[C@@H](NC(=O)OC)C(C)C)[nH]c54)c3)cc2)[nH]1)C(C)C [Compound 7] | 0.047 | 0.005 | 172 |  |  |  |  |
| COC(=O)N[C@H](C(=O)N1CCC[C@H]1c1ncc(-c2ccc3cc(-c4ccc5c(ccc6nc([C@@H]7C[Si](C)(C)CN7C(=O)[C@@H](NC(=O)OC)C7CCOCC7)[nH]c65)c4)ccc3c2)[nH]1)C1CCOCC1 [Compound 113] | 0.026 | > 1 |  | 97 |  |  |  |
| COC(=O)N[C@H](C(=O)N1C[C@H](F)C[C@H]1c1ncc(-c2ccc(-c3ccc4c(ccc5nc([C@@H]6C[Si](C)(C)CN6C(=O)[C@@H](NC(=O)OC)C(C)C)[nH]c54)c3)cc2)[nH]1)C(C)C [Compound 10] | 0.15 | 0.009 | 92 |  |  |  |  |
| COC(=O)N[C@H](C(=O)N1CC(F)(F)C[C@H]1c1nc2ccc3cc(-c4ccc5c(ccc6nc([C@@H]7C[Si](C)(C)CN7C(=O)[C@@H](NC(=O)OC)C(C)C)[nH]c65)c4)ccc3c2[nH]1)C(C)C [Compound 9] | 0.02 | 0.007 | 169 |  |  |  |  |
| COC(=O)N[C@H](C(=O)N1C[Si](C)(C)C[C@H]1c1ncc(-c2ccc(-c3ccc4c(ccc5nc([C@@H]6CC(F)(F)CN6C(=O)[C@@H](NC(=O)OC)C(C)C)[nH]c54)c3)cc2)[nH]1)C(C)C [Compound 8] | 0.042 | 0.02 | 65 |  |  |  |  |

— US20150057246A1, “SILYL-CONTAINING HETEROCYCLIC COMPOUNDS AND METHODS OF USE THEREOF FOR THE TREATMENT OF VIRAL DISEASES” (priority 2012, published 2015)
